Paper PMC10794144, “A novel antibiotic class targeting the lipopolysaccharide transporter” (Nature, 2024)
In brackets after ≈: the same amount, converted by molar mass.

What was measured:
A. baumannii = experiment: microbe, parasite or virus in culture
Procedure, shortened: (§1)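 Broth microdilution per CLSI M07/M100, with inocula diluted from a 0.5 McFarland suspension in CAMHB, or LB for A. baylyi. MIC was read as the lowest concentration inhibiting growth by eye or beyond which OD600 stopped decreasing.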

P. aeruginosa ATCC 27853 = experiment: microbe, parasite or virus in culture
Procedure, shortened: as §1

CN1C(=O)[C@H](CCCCN)NC(=O)[C@H](CCCN)NCc2cccnc2Sc2c(Cl)ccc(Cl)c2CNC(=O)[C@@H]1Cc1c[nH]c2ccccc12 [RO7075573]
MIC 100% (A. baumannii; ROB08708, Study LGC294355): >64 µg/mL | MIC 80% (A. baumannii; ROB08708, Study LGC295147): 0.12 µg/mL (≈ 0.162 µM) | MIC 100% (A. baumannii; ROB08708, Study LGC295147): 64 µg/mL (≈ 86.5 µM) | MIC 80% (A. baumannii; ROB08708, Study LGC296813): 0.12 µg/mL (≈ 0.162 µM) | MIC 100% (A. baumannii; ROB08708, Study LGC296813): >64 µg/mL | MIC 80% (A. baumannii; ROB08708, Study LGC299544): 0.12 µg/mL (≈ 0.162 µM) | MIC 100% (A. baumannii; ROB08708, Study LGC299544): 64 µg/mL (≈ 86.5 µM) | MIC 80% (A. baumannii; ROB08708, Study LGC301026): 0.12 µg/mL (≈ 0.162 µM) | MIC 100% (A. baumannii; ROB08708, Study LGC301026): >64 µg/mL | MIC 80% (A. baumannii; ROB08708, Study LGC308175): ≤0.06 µg/mL | MIC 100% (A. baumannii; ROB08708, Study LGC308175): 64 µg/mL (≈ 86.5 µM) | MIC 80% (A. baumannii; ROB08708, Study ROC010): 0.12 µg/mL (≈ 0.162 µM) | MIC 100% (A. baumannii; ROB08708, Study ROC010): 16 µg/mL (≈ 21.6 µM) | MIC 80% (A. baumannii; ROB08708, Study ROC012): 0.12 µg/mL (≈ 0.162 µM) | MIC 100% (A. baumannii; ROB08708, Study ROC012): 64 µg/mL (≈ 86.5 µM) | MIC 80% (A. baumannii; ROB08709, Study LGC281440): 0.12 µg/mL (≈ 0.162 µM) | MIC 100% (A. baumannii; ROB08709, Study LGC281440): 16 µg/mL (≈ 21.6 µM) | MIC 80% (A. baumannii; ROB08709, Study LGC282160): 0.12 µg/mL (≈ 0.162 µM) | MIC 100% (A. baumannii; ROB08709, Study LGC282160): >64 µg/mL | MIC 80% (A. baumannii; ROB08709, Study LGC284879): 0.25 µg/mL (≈ 0.338 µM) | MIC 100% (A. baumannii; ROB08709, Study LGC284879): >64 µg/mL | MIC 80% (A. baumannii; ROB08709, Study LGC285582): 0.12 µg/mL (≈ 0.162 µM) | MIC 100% (A. baumannii; ROB08709, Study LGC285582): 64 µg/mL (≈ 86.5 µM) | MIC 80% (A. baumannii; ROB08709, Study LGC286210): 0.12 µg/mL (≈ 0.162 µM) | MIC 100% (A. baumannii; ROB08709, Study LGC286210): 64 µg/mL (≈ 86.5 µM) | MIC 80% (A. baumannii; ROB08709, Study LGC293598): 0.12 µg/mL (≈ 0.162 µM) | MIC 100% (A. baumannii; ROB08709, Study LGC293598): >64 µg/mL | MIC 80% (A. baumannii; ROB08709, Study LGC294355): 0.12 µg/mL (≈ 0.162 µM) | MIC 100% (A. baumannii; ROB08709, Study LGC294355): >64 µg/mL | MIC 80% (A. baumannii; ROB08709, Study LGC295147): 0.12 µg/mL (≈ 0.162 µM) | MIC 100% (A. baumannii; ROB08709, Study LGC295147): 64 µg/mL (≈ 86.5 µM) | MIC 80% (A. baumannii; ROB08709, Study LGC296813): 0.12 µg/mL (≈ 0.162 µM) | MIC 100% (A. baumannii; ROB08709, Study LGC296813): 64 µg/mL (≈ 86.5 µM) | MIC 80% (A. baumannii; ROB08709, Study LGC299544): 0.25 µg/mL (≈ 0.338 µM) | MIC 100% (A. baumannii; ROB08709, Study LGC299544): 64 µg/mL (≈ 86.5 µM) | MIC 80% (A. baumannii; ROB08709, Study LGC301026): 0.12 µg/mL (≈ 0.162 µM) | MIC 100% (A. baumannii; ROB08709, Study LGC301026): 64 µg/mL (≈ 86.5 µM) | MIC 80% (A. baumannii; ROB08709, Study LGC308175): 0.12 µg/mL (≈ 0.162 µM) | MIC 100% (A. baumannii; ROB08709, Study LGC308175): >64 µg/mL | MIC 80% (A. baumannii; ROB08709, Study ROC010): 0.25 µg/mL (≈ 0.338 µM) | MIC 100% (A. baumannii; ROB08709, Study ROC010): 64 µg/mL (≈ 86.5 µM) | MIC 80% (A. baumannii; ROB08709, Study ROC012): 0.25 µg/mL (≈ 0.338 µM) | MIC 100% (A. baumannii; ROB08709, Study ROC012): 64 µg/mL (≈ 86.5 µM) | MIC 80% (A. baumannii; ROB08710, Study LGC281440): 0.25 µg/mL (≈ 0.338 µM) | MIC 100% (A. baumannii; ROB08710, Study LGC281440): 8 µg/mL (≈ 10.8 µM) | MIC 80% (A. baumannii; ROB08710, Study LGC282160): 0.25 µg/mL (≈ 0.338 µM) | MIC 100% (A. baumannii; ROB08710, Study LGC282160): 64 µg/mL (≈ 86.5 µM) | MIC 80% (A. baumannii; ROB08710, Study LGC284879): 0.25 µg/mL (≈ 0.338 µM) | MIC 100% (A. baumannii; ROB08710, Study LGC284879): >64 µg/mL | MIC 80% (A. baumannii; ROB08710, Study LGC285582): 0.25 µg/mL (≈ 0.338 µM) | MIC 100% (A. baumannii; ROB08710, Study LGC285582): 64 µg/mL (≈ 86.5 µM) | MIC 80% (A. baumannii; ROB08710, Study LGC286210): 0.12 µg/mL (≈ 0.162 µM) | MIC 100% (A. baumannii; ROB08710, Study LGC286210): 64 µg/mL (≈ 86.5 µM) | MIC 80% (A. baumannii; ROB08710, Study LGC293598): 0.12 µg/mL (≈ 0.162 µM) | MIC 100% (A. baumannii; ROB08710, Study LGC293598): >64 µg/mL | MIC 80% (A. baumannii; ROB08710, Study LGC294355): 0.5 µg/mL (≈ 0.676 µM) | MIC 100% (A. baumannii; ROB08710, Study LGC294355): >64 µg/mL | MIC 80% (A. baumannii; ROB08710, Study LGC295147): 0.12 µg/mL (≈ 0.162 µM) | MIC 100% (A. baumannii; ROB08710, Study LGC295147): 32 µg/mL (≈ 43.3 µM) | MIC 80% (A. baumannii; ROB08710, Study LGC296813): 0.12 µg/mL (≈ 0.162 µM) | MIC 100% (A. baumannii; ROB08710, Study LGC296813): 64 µg/mL (≈ 86.5 µM) | MIC 80% (A. baumannii; ROB08710, Study LGC299544): 0.5 µg/mL (≈ 0.676 µM) | MIC 100% (A. baumannii; ROB08710, Study LGC299544): 64 µg/mL (≈ 86.5 µM) | MIC 80% (A. baumannii; ROB08710, Study LGC301026): 0.12 µg/mL (≈ 0.162 µM) | MIC 100% (A. baumannii; ROB08710, Study LGC301026): 64 µg/mL (≈ 86.5 µM) | MIC 80% (A. baumannii; ROB08710, Study LGC308175): 0.12 µg/mL (≈ 0.162 µM) | MIC 100% (A. baumannii; ROB08710, Study LGC308175): 32 µg/mL (≈ 43.3 µM) | MIC 80% (A. baumannii; ROB08710, Study ROC010): 0.25 µg/mL (≈ 0.338 µM) | MIC 100% (A. baumannii; ROB08710, Study ROC010): 0.5 µg/mL (≈ 0.676 µM) | MIC 80% (A. baumannii; ROB08710, Study ROC012): 0.25 µg/mL (≈ 0.338 µM) | MIC 100% (A. baumannii; ROB08710, Study ROC012): 32 µg/mL (≈ 43.3 µM) | Fold more potent than RO7036668 (A. baumannii; panel of A. baumannii): 4- to 64 fold | MIC (P. aeruginosa ATCC 27853; Pseudomonas aeruginosa, ATCC27853): > 64 µg/mL | MIC 100% (P. aeruginosa ATCC 27853; Study LGC281440): 64 µg/mL (≈ 86.5 µM) | MIC 100% (P. aeruginosa ATCC 27853; Study LGC282160): >64 µg/mL | MIC 100% (P. aeruginosa ATCC 27853; Study LGC284879): >64 µg/mL | MIC 100% (P. aeruginosa ATCC 27853; Study LGC285582): >64 µg/mL | MIC 100% (P. aeruginosa ATCC 27853; Study LGC286210): 64 µg/mL (≈ 86.5 µM) | MIC 100% (P. aeruginosa ATCC 27853; Study LGC293598): >64 µg/mL | MIC 100% (P. aeruginosa ATCC 27853; Study LGC294355): >64 µg/mL | MIC 100% (P. aeruginosa ATCC 27853; Study LGC295147): 64 µg/mL (≈ 86.5 µM) | MIC 100% (P. aeruginosa ATCC 27853; Study LGC296813): 64 µg/mL (≈ 86.5 µM) | MIC 100% (P. aeruginosa ATCC 27853; Study LGC299544): >64 µg/mL | MIC 100% (P. aeruginosa ATCC 27853; Study LGC301026): >64 µg/mL | MIC 100% (P. aeruginosa ATCC 27853; Study LGC308175): >64 µg/mL | MIC 100% (P. aeruginosa ATCC 27853; Study ROC010): >64 µg/mL | MIC 100% (P. aeruginosa ATCC 27853; Study ROC012): >64 µg/mL
